From patent US5190919A, “Antihemostatic Factor VII peptides” (Board of Regents, The University of Texas System, priority 1989, dated 1993)
Like-named read-outs stand apart in the source and are kept apart here. Ends that are not written are not given here.

How the values were obtained:
[1] = target: T1, Factor VII-tissue factor complex (Homo sapiens, UniProt P08709+P13726); experiment: Rate of Factor X activation, two-stage chromogenic (amidolytic) assay with purified proteins; type: biochemical; details: for IC50: derivatives of peptide 194-214 (FIG. 4), read-out: Apparent CI50, rate of Factor Xa formation
T1 construct: Factor VII/VIIa (6), Factor X (7), and Factor Xa (8) were isolated as previously reported; Tissue factor was prepared from human brain as described (9); from tissue; host or cells: Tissue factor from human brain (gift of Dr. J. H. Morrissey)
Experimental: (§1) 3. Rate of Factor X activation: The effect of the synthetic peptides on the rate of activation of Factor X was analyzed in a purified system employing chromogenic assays. For the inhibition experiments, peptides were diluted in 20 mM Tris-HCl, 150 mM NaCl, pH 7.4 (TBS) and preincubated with 10 microliters each of Factor X (180 nM) and tissue factor (0.075%) at 37 degrees Centigrade in a total volume of 140 microliters adjusted with TBS containing 1% bovine serum albumin (BSA) and 5 mM CaCl2. After 30 minutes, Factor X activation was initiated by the addition of 10 microliters of Factor VII (2 pM). At defined timed intervals, 20 microliter aliquots were removed and added to a microtiter plate containing 80 microliters of 50 mM Tris-HCl, 225 mM NaCl and 10 mM EDTA, pH 8.2. Following sample collection, 50 microliters of 0.6 mM chromogenic substrate was added and the rate of change in the absorbance at 405 nm was monitored for 10 minutes using a Vmax Kinetic Microplate Reader (Molecular Devices, Inc., Palo Alto, Calif.). The rate of Factor Xa formation was calculated from the slope of linear regression of data plotted as a function of the initial rate of hydrolysis (OD405 /min) versus time and expressed as OD405 /min^2.
(§2) 5. Inhibition assays: The inhibition of Factor VII function was determined in the two-stage chromogenic assay described in Example I-A, 3. The peptides were initially screened at 200 μM added concentration. To determine the concentration of peptide required to inhibit the rate of Factor X activation by 50% (CI50), peptides at various concentrations or buffer (TBS-BSA) were incubated with their respective complexes. Following the addition of Factor VII, the rate of Factor Xa generation was determined and the percent of Factor X activation in the presence of different concentrations of Factor VII peptides relative to buffer controls was calculated. Analogous determinations of the CI50 values were measured in the specific coagulation assay outlined above. Factor VII activity in the presence of varying concentrations of peptide was measured by comparing the clotting times to a standard curve constructed from the log of the clot time versus the log of Factor VII concentration in the same incubation mixtures described for the peptides.
(§3) Kinetic analysis of multiple inhibitors known to be noncompetitive in nature was conducted holding the concentration of the first inhibitory peptide constant and varying the concentration of a second inhibitory peptide. The analysis for mutual exclusivity of the inhibitory peptides employed the methods adapted from Segel (12). […] Regression lines which intersect with one another indicate mutual non-exclusivity of one peptide to another, i.e. tested peptides act as regions which are spatially separate from one another.
(§4) Factor VII function results from a two-step mechanism. First, Factor VII must associate with tissue factor in order to form the active macromolecular complex and second, Factor VII activity within the macromolecular complex can be measured by the conversion of substrate to product, e.g. activation of Factor X. The peptides of the present invention were tested for their ability to inhibit Factor X activation by employing the two-stage chromogenic assay described in Example I-A, 3. Inhibition of Factor X activation measured by this assay detects both of the steps stated for Factor VII function. To verify the inhibitory effect of the synthetic peptides, each of the components were titrated. […] Factor X was titrated against the preformed Factor VII-tissue factor complex in the presence of at least 10^4 molar excess of each peptide. Selected peptides were inoubated with tissue factor and Factor X for 30 minutes at […] before the addition of Factor VII. This preincubation time was sufficient for the peptides to reach equilibrium with the target protein (13). […]

[2] = system: Factor VII-tissue factor complex; experiment: as above; type: biochemical, human; details: for Factor Xa Formation (% of Control Rate): 200 μM of each synthetic peptide, amidolytic assay, purified proteins; for Dose-dependent inhibition of the rate of Factor Xa formation / Factor VII activity: result in words
Experimental: as §1, §2, §3, §4

Factor VII = target: T2, Factor VII (Homo sapiens, UniProt P08709); experiment: Two-stage clotting assay specific for Factor VII function in Factor VII-depleted plasma; type: biochemical; details: for IC50: Table 2, Factor VII-depleted plasma, tissue factor, read-out: Concentration for 50% Inhibition, VIIa Coagulant Activity
T2 construct: Factor VII/VIIa (6), Factor X (7), and Factor Xa (8) were isolated as previously reported
T2 sequence (P08709 61-466): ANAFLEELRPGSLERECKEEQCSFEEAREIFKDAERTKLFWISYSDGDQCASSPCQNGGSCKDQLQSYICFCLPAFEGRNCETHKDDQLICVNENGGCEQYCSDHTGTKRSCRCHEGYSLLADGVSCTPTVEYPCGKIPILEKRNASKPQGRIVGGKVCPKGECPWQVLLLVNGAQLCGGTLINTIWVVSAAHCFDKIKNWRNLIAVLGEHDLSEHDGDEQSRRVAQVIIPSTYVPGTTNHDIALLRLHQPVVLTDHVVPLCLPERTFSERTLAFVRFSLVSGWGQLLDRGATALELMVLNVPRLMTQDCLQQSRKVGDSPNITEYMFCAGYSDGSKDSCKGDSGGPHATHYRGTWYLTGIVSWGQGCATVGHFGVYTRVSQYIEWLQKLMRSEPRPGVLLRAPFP
Experimental: 4. Coagulation assays: The effect of the synthetic peptides and antibodies to them on Factor VII coagulation activity was determined using two-stage clotting assays specific for Factor VII function.
Synthetic peptides were individually preincubated with 20 μl each of plasma immunochemically depleted of Factor VII and 0.25% tissue factor at 37 degrees Centigrade in a total volume of 190 μl adjusted with TBS containing 1% BSA and 5 mM CaCl2. At the end of 30 minutes, coagulation was initiated by the addition of 10 μl of Factor VII (1 nM). The time for clot formation was measured using a Fibrometer (BBL, Cockesysville, Md.). Factor VII activity in the presence of varying concentrations of peptide was quantitated by comparing their clotting times to a standard curve constructed from the log of the clot time versus the log of a known amount of Factor VII in the same reaction mixture without added peptide.
as §2, with “To determine the concentration of peptide required to inhibit the rate of Factor X activation by 50% (CI50), peptides at various concentrations or buffer (TBS-BSA) were incubated with their respective complexes.” left out
Based on the results of the chromogenic assays, three peptides, 208-229, 285-305 and 276-390, were selected for further study for their ability to inhibit a coagulation-based assay designed to measure Factor VII activity. […] After Factor VII was added, the time of clot formation was determined and quantitated.

[3] = Table 4, derivatives of inhibitory peptides, read-out: CI50, concentration of peptide inhibiting the rate of Factor Xa activation by 50%

T1 sequence (P13726 33-295, one chain of several): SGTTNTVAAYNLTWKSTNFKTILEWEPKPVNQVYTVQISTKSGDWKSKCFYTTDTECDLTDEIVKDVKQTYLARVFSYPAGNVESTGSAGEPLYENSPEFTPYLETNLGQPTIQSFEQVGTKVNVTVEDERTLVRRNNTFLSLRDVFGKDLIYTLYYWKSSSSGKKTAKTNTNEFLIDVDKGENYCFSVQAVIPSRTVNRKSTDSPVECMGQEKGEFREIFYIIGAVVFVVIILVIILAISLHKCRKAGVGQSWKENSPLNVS

## 193-203: Factor VII region II synthetic peptide used in mixed inhibition; possibly the 196-203 of Table 4 (YPCGKIPILEK; UniProt P08709 193-203, looked up, fragment) [Peptide 193-203]
[1]; Dixon plots, 193-203 at 0, 14, 28 μM (FIG. 6A), parallel regression lines
  Mixed inhibition, mutual exclusivity of peptides 209-221 and 193-203: mutually exclusive

## AVLGEHDLSEHDG [Peptide 206-218, AVLGEHDLSEHDG]
[1]
  IC50: ~50 µM

## CFDKIKNWRNLIAVLGEHDLS-NH2 [Peptide 194-214]
[1]
  IC50: ~70 µM

## GEHDLSEHDGDEQ [Peptide 209-221, GEHDLSEHDGDEQ]
[1]
  IC50: ~70 µM

## GKVCPKGEC [Peptide 156-164]
[2]
  Factor Xa Formation (% of Control Rate): 97 % of Control Rate

## GQLLDRGATALELMVLNVPRLGC-NH2 [Peptide 285-305]
[2]; 9.5 μM peptide, varying Factor X concentration (FIG. 1)
  Reduction of the rate and extent of Factor X activation: about 50%
[2]
  Factor Xa Formation (% of Control Rate): 0 % of Control Rate
  Dose-dependent inhibition of the rate of Factor Xa formation / Factor VII activity: significantly inhibit the rate of Factor Xa formation in a dose-dependent manner
[2]; 200 μM peptide
  Inhibition of the rate of Factor Xa formation relative to control reactions: completely inhibited
[2]; Dixon plots, 285-305 at 0, 1.5, 3.0 μM (FIG. 6B), lines intersect above abscissa
  Mixed inhibition, mutual exclusivity of peptides 209-221 and 285-305: lack of mutual exclusively
[2]; FIG. 2
  Concentration for 50% inhibition, fold less than that for peptide 44-50, 194-214, 208-229 or 376-390: 15 to 20 fold
  Concentration for 50% inhibition, fold less than that seen with peptides 170-178 and 330-340: 75 to 100 fold
[2]; Table 2, read-out: Concentration for 50% Inhibition, Rate of Factor Xa Formation
  IC50: 3 µM
[2]; [3]
  IC50: 3 µM
[2]; from Dixon plots of the rate of Factor Xa formation, three Factor X concentrations, read-out: Ki, peptide inhibition constants for Factor VII activity
  Ki: 2.8 ± 0.4 µM
Factor VII; varying peptide concentrations (FIG. 7)
  Inhibition of clot formation: inhibited clot formation in a dose-dependent manner

## LGEHDLSEHDGDEQSRRVAQVIGC-NH2 [Peptide 208-229]
[1]
  IC50: ~50 µM
Factor VII
  IC50: 225 µM

## PRLMTQDCLQQSRKVGDSPNITEYMFC [Peptide 303-329]
[2]
  Factor Xa Formation (% of Control Rate): 92 % of Control Rate

## R-T-K-L-F-W-I-S-Y-S-D-G-D-Q-C (RTKLFWISYSDGDQC) [Peptide 36-50]
[2]
  Dose-dependent inhibition of the rate of Factor Xa formation / Factor VII activity: significantly inhibit the rate of Factor Xa formation in a dose-dependent manner

## RNLIAVLGEHDLSE [Peptide 202-214, RNLIAVLGEHDLSE]
[2]; [3]
  IC50: 205 µM

## VYTRVSQYIEWLQKL-NH2 [Peptide 376-390, VYTRVSQYIEWLQKL]
Factor VII
  IC50: 172 µM
